From PMC12673082 (Nature Communications, 2025)
Changes are numbered by the printed parent chain.

Columns and labels:
human P2X7 [1] = settings: cited from earlier work
mP2X7 A312V = biological target: T1, mP2X7 A312V (Mus musculus, UniProt Q9Z1M0, A312V); experiment: Whole-cell patch clamp, mP2X7 mutant; type: cell-based; settings: read-out: EC50 (apparent affinity for ATP); m7A312V
T1 sequence (Q9Z1M0 1-595 A312V): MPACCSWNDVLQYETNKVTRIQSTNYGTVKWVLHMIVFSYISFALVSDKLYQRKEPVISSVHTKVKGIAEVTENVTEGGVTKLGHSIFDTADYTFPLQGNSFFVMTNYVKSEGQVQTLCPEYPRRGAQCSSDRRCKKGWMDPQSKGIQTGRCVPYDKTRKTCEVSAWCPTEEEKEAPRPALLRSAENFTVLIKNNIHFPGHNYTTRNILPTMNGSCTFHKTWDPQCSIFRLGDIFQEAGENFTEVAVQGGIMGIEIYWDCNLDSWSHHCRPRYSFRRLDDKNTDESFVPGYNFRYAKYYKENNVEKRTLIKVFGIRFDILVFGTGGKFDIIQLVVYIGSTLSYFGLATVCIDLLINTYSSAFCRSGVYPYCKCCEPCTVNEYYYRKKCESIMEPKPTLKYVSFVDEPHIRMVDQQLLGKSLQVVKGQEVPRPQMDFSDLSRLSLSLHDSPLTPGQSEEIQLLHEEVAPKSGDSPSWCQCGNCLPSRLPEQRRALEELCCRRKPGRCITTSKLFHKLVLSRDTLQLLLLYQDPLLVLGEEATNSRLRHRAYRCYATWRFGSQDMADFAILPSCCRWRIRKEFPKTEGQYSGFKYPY

mP2X7 = biological target: T2, mP2X7 (Mus musculus, UniProt Q9Z1M0); experiment: Whole-cell patch clamp, ATP-evoked current, transfected HEK293; type: cell-based
T2 sequence (Q9Z1M0 1-595): T1 sequence (Q9Z1M0 1-595 A312V) with V312A

human P2X7 [2] = experiment: Literature IC50; settings: from Table S1 values
human P2X3 = settings: read-out: IC50 (half-maximal inhibitory concentration); hP2X3; cited from earlier work
human P2X4 = settings: cited from earlier work
rP2X7 = biological target: T3, rP2X7 (Rattus norvegicus, UniProt Q64663); experiment: Whole-cell patch clamp, ATP-evoked current, transfected HEK293; type: cell-based; settings: HEK293, read-out: inhibition rate
T3 sequence (Q64663 1-595): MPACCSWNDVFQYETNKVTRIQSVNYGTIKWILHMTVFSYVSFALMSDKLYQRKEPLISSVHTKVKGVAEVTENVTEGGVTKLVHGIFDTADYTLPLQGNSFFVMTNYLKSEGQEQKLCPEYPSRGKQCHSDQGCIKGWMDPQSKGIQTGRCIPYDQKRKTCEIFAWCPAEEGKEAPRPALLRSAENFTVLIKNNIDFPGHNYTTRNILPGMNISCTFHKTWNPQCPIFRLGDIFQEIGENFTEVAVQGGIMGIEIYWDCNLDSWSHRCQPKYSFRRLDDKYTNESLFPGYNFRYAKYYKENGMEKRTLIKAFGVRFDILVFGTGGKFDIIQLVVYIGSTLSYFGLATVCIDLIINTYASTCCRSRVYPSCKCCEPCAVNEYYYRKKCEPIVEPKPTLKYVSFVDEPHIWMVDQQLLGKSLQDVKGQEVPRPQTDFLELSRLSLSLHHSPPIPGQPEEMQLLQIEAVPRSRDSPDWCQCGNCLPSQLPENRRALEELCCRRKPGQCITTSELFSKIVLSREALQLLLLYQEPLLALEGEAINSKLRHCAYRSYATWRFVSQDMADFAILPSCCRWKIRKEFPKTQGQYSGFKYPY

hP2X7 = biological target: T4, hP2X7 (Homo sapiens, UniProt Q99572); experiment: as above; type: cell-based
T4 sequence (Q99572 1-595): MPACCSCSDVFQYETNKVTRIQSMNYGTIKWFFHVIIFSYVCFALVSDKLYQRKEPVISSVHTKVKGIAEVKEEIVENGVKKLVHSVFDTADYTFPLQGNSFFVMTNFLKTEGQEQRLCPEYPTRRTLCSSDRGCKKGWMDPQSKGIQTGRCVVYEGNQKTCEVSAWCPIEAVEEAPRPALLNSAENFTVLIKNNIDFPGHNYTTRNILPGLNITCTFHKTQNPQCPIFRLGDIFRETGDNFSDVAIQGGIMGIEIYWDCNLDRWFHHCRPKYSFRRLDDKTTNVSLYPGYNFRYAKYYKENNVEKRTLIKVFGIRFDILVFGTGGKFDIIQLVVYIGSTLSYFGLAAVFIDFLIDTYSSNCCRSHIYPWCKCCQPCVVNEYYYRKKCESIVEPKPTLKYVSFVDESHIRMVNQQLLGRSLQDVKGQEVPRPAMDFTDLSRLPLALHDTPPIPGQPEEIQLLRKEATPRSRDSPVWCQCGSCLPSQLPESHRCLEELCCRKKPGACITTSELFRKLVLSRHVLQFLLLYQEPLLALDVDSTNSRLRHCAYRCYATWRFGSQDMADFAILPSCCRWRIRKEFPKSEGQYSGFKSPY

hP2X7 F103A = hP2X7 F103A (Homo sapiens, UniProt Q99572, F103A); experiment: Whole-cell patch clamp, hP2X7 mutant; type: cell-based; settings: h7F103A, 30 μM (Fig. S3b)
hP2X7 F103A, sequence (Q99572 whole entry F103A): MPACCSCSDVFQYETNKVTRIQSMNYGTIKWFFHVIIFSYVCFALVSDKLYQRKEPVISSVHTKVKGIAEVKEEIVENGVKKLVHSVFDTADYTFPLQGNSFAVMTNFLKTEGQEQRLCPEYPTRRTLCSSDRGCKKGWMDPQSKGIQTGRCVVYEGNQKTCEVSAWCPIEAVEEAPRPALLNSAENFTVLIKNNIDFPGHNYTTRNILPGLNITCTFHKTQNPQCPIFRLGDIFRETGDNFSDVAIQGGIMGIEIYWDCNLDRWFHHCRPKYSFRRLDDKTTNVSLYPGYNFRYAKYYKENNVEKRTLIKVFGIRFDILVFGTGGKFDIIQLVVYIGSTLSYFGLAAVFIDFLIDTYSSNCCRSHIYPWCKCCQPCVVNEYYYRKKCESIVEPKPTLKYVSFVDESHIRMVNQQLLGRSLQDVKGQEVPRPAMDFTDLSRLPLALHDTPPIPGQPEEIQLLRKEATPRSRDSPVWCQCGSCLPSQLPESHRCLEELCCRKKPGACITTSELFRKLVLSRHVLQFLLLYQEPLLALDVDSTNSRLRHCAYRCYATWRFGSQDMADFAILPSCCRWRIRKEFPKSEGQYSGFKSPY

hP2X7 I68F = hP2X7 I68F (Homo sapiens, UniProt Q99572, I68F); experiment: Whole-cell patch clamp, hP2X7 mutant; type: cell-based
hP2X7 I68F, sequence (Q99572 whole entry I68F): as the sequence (Q99572 whole entry F103A) above, with I68F, A103F counted along it

hP2X7 E305F = hP2X7 E305F (Homo sapiens, UniProt Q99572, E305F); experiment: Whole-cell patch clamp, hP2X7 mutant; type: cell-based
hP2X7 E305F, sequence (Q99572 whole entry E305F): as the sequence (Q99572 whole entry F103A) above, with A103F, E305F counted along it

hP2X7 V312A = hP2X7 V312A (Homo sapiens, UniProt Q99572, V312A); experiment: Whole-cell patch clamp, hP2X7 mutant; type: cell-based
hP2X7 V312A, sequence (Q99572 whole entry V312A): as the sequence (Q99572 whole entry F103A) above, with A103F, V312A counted along it

hP2X7 M140E = hP2X7 M140E (Homo sapiens, UniProt Q99572, M140E); experiment: Whole-cell patch clamp, hP2X7 mutant; type: cell-based; settings: h7M140E, 30 μM (Fig. S3b)
hP2X7 M140E, sequence (Q99572 whole entry M140E): as the sequence (Q99572 whole entry F103A) above, with A103F, M140E counted along it

hP2X7 E305C = hP2X7 E305C (Homo sapiens, UniProt Q99572, E305C); experiment: Whole-cell patch clamp, hP2X7 mutant; type: cell-based; settings: h7E305C, 30 μM (Fig. S3b)
hP2X7 E305C, sequence (Q99572 whole entry E305C): as the sequence (Q99572 whole entry F103A) above, with A103F, E305C counted along it

hP2X7 F88A = hP2X7 F88A (Homo sapiens, UniProt Q99572, F88A); experiment: Whole-cell patch clamp, hP2X7 mutant; type: cell-based; settings: h7F88A, 30 μM (Fig. S3b)
hP2X7 F88A, sequence (Q99572 whole entry F88A): as the sequence (Q99572 whole entry F103A) above, with F88A, A103F counted along it

hP2X7 Y295F = hP2X7 Y295F (Homo sapiens, UniProt Q99572, Y295F); experiment: Whole-cell patch clamp, hP2X7 mutant; type: cell-based
hP2X7 Y295F, sequence (Q99572 whole entry Y295F): as the sequence (Q99572 whole entry F103A) above, with A103F, Y295F counted along it

[3] = HEK293, read-out: inhibition rate

SMILES: COc1ccc(CC(=O)NC(NC(=NC#N)Nc2cccc3ncccc23)C(C)(C)C)cc1OC (centres unmarked) [A740003, N-(1-{[(cyanoimino)(5-quinolinylamino)methyl]amino}-2,2-dimethylpropyl)-2-(3,4-dimethoxyphenyl)acetamide]
- IC50 (human P2X7 [1]; P2X7): 0.0437 µM
- fold difference in IC50 between hP2X7 and mP2X7 (human P2X7 [1]): 37 fold

SMILES: Nc1ncnc2c1ncn2[C@@H]1O[C@H](COP(=O)(O)OP(=O)(O)OP(=O)(O)O)[C@@H](O)[C@H]1O [ATP, reference compound]
- EC50 (mP2X7 A312V): 1420 ± 170 µM
- EC50 (mP2X7; read-out: EC50 (apparent affinity for ATP), m7WT): 782 ± 71 µM

SMILES: O=C(CC12CC3CC(CC(C3)C1)C2)Nc1cccc2nc(NCCNCCO)ccc12 [AZ10606120]
- apparent affinity (IC50) for hP2X7, fold higher than for mP2X7 (human P2X7 [2]): 500 fold
- apparent affinity (IC50) for hP2X7, fold higher than for rP2X7 (human P2X7 [2]): 1587 fold

SMILES: CNC(=O)c1cc(F)c(-c2nc3cc(C)ccn3c2C[C@H]2CN(C(=O)OC)CCO2)c(F)c1 [BLU-5937]
- IC50 (human P2X3): 0.025 µM

SMILES: CC(C)c1cc(Br)c(NC(=O)Nc2cccnc2)c(Br)c1 [BX430]
- IC50 (human P2X4; P2X4): 0.54 µM
- IC50 for hP2X4, fold lower than for mP2X4 and rP2X4 (human P2X4): more than 20 fold
- fold difference between hP2X4 and mP2X4 (human P2X4): > 20 fold

SMILES: C=CC[C@H]1c2ccc(OC)c(OC)c2CN2CCc3cc4c(cc3[C@@H]12)OCO4 [PSFL1190, (13S,13aR)-13-allyl-9,10-dimethoxy-5,8,13,13a-tetrahydro-6H-1,3dioxolo[4,5-g] isoquinolino[3,2-a]isoquinoline]
- inhibition at 30 µM (rP2X7): 12.1 ± 2.4%
- IC50 (hP2X7): 12.6 ± 2.9 µM
- fold difference in affinity for hP2X7 between PSFL1191 and PSFL1190 (hP2X7): more than 50 fold
- inhibition at 30 µM (mP2X7; [3]): 11.8 ± 6.1%

SMILES: COc1ccc2cc3[n+](cc2c1OC)CCc1cc2c(cc1-3)OCO2 [berberine]
- inhibitory effect vs h7WT (hP2X7 F103A): notably attenuated
- IC50 (hP2X7 I68F): 39.9 ± 5.8 µM
- inhibitory effect vs h7WT (hP2X7 I68F; h7I68F, 30 μM (Fig. S3b)): notably attenuated
- IC50 (hP2X7 E305F): 87.7 ± 4.3 µM
- inhibitory effect vs h7WT (hP2X7 E305F; h7E305F, 30 μM (Fig. S3b)): notably attenuated
- inhibition at 300 µM (rP2X7): 19.2 ± 4.3%
- IC50 (hP2X7 V312A): > 300 µM
- inhibitory effect vs h7WT (hP2X7 V312A; h7V312A, 30 μM (Fig. S3b)): notably attenuated
- inhibitory effect vs h7WT (hP2X7 M140E): notably attenuated
- inhibitory effect vs h7WT (hP2X7 E305C): notably attenuated
- IC50 (hP2X7): 12.7 ± 0.9 µM
- inhibitory effect vs h7WT (hP2X7 F88A): notably attenuated
- IC50 (hP2X7 Y295F): 46.6 ± 7.8 µM
- inhibitory effect vs h7WT (hP2X7 Y295F; h7Y295F, 30 μM (Fig. S3b)): notably attenuated
- inhibition at 300 µM (mP2X7; [3]): 8.02 ± 2.7%
